Patent US20240027453A1, “METHOD FOR DETECTION AND QUANTITATIVE MONITORING OF INFECTIONS WITH HERPESVIRUSES” (The Trustees of Princeton University, priority 2020, published 2024)

Assays:
HSV-1 [1] = assay: TRUSTED PRM assay of HSV-1 viral protein levels after small molecule treatment; format: cell-based; conditions: for DBP (P04296) protein level / TK (P03176) protein level / UL8 (P10192) protein level / UL12 (P04294) protein level / UL30 (P04293) protein level / UL42 (P10226) protein level / US3 (P04413) protein level: E; for DBP (P04296) protein level / TK (P03176) protein level / UL8 (P10192) protein level / UL12 (P04294) protein level / UL30 (P04293) protein level / UL42 (P10226) protein level / US3 (P04413) protein level / ICP0 (P08393) protein level / ICP4 (P08392) protein level / ICP22 (P04485) protein level / UL54 (P10238) protein level / CVC2 (P10209) protein level / UL26 (P10210) protein level / UL48 (P06492) protein level / UL49 (P10233) protein level / gB (P10211) protein level / gI (P06487) protein level: FIG. 8A; for ICP0 (P08393) protein level / ICP4 (P08392) protein level / ICP22 (P04485) protein level / UL54 (P10238) protein level: IE; for CVC2 (P10209) protein level / UL26 (P10210) protein level / UL48 (P06492) protein level / UL49 (P10233) protein level / gB (P10211) protein level / gI (P06487) protein level: L
Protocol: (§1) In example herpesvirus PRM assay methods shown herein, cell pellets were lysed in 2% SDS, 100 mM NaCl, 0.5 mM EDTA, 50 mM Tris, pH 8.2, and 50 μg of protein was reduced and alkylated with 25 mM TCEP and 50 mM CAM respectively for 20 min at 70° C. Proteins were then precipitated via methanol chloroform precipitation (Wessel & Flugg, Anal Biochem. 138(1):141-143, 1984), resuspended in 50 mM HEPES, pH 8.2 and digested overnight with trypsin (50:1 protein:enzyme w/w ratio). Digested peptides were desalted by SDB-RPS StageTip as previously described (Lum et al., Cell Syst., 7(6):[…], 2018; Greco et al., Methods Mol Biol 1410:39-63, 2016; Federspiel & Cristea, Methods Mol Biol., 1977:115-143, 2019).
(§2) Peptides (1.0 μg on column) were analyzed by LC-MS/MS using a Dionex Ultimate 3000 UHPLC coupled online to an EASYSpray ion source and a Q Exactive HF. Peptides were separated on an EASYSpray C18 column (75 μm×25 cm) heated to 50° C. using a linear gradient of 5% B to 32% B over 60 min at a flow rate of 250 nL/min and were ionized at 1.7 kv. Mobile phase A consisted of 0.1% FA in H2O and mobile phase B consisted of 0.1% FA, 2.9% H2O in ACN.
(§3) The PRM method was controlled by a peptide inclusion list with retention time windows of 6 min for selected precursor ions.
(§4) The PRM assay was developed and analyzed using the open-source software Skyline (Maclean et al., Bioinformatics 26(7):966-968, 2010). Summed area under the curve of 3-4 transitions per peptide was used for quantitation. Targeted peptides were normalized to host protein loading control peptides. Peptide values for each sample were scaled to the average of each peptide across all runs. The average of multiple peptides was used as the inferred value for the protein measurement when more than one peptide was quantified (Federspiel et al., PLoS Biol. 17(9):e3000437. Doi: 10.1371/journal.pbio.3000437). PRM quantitation data were graphed using the Python Seaborn and Matplotlib libraries.
(§5) MRC5 primary human fibroblasts (HFs) (ATCC CCL-171) were used as the model system for HSV-1 and HCMV infections and were cultured in complete growth medium (DMEM supplemented with 10% fetal bovine serum and 1% penicillin-streptomycin antibiotics) at 37° C. and 5% CO2. iSLK.219 cells harboring latent KSHV (a gift from Dr. Britt Glaunsinger, University of California, Berkeley) were grown in complete growth medium supplemented with 500 μg/ml hygromycin (ThermoFisher Scientific, 10687010) at 37° C. and 5% CO2. All cells were used for experiments within a maximum of 10 passages.
(§6) Wild type HSV-1 strain 17+ (a gift from Beate Sodeik, Hannover Medical School, Hannover, Germany) was propagated as previously described (Diner et al., 2015). Briefly, PO stocks were generated by electroporating pBAC-HSV-1 into U-2 OS cells. […] In a similar manner, wild type HCMV strain AD169 was produced from BAC electroporation into HFs and working stocks were propagated by infecting HFs at a low level. In both cases, cell-associated virus was released by sonication, combined with supernatant virus, then concentrated by ultracentrifugation (20,000 rpm, 2 hours, 4° C. with SW28 swinging bucket rotor [Beckman Coulter]) over a 10% ficoll (HSV-1) or 20% sorbitol (HCMV) cushion. Virus stock titers were determined by plaque assay for HSV-1 or tissue culture infectious dose (TCID50) for HCMV and infections were performed at a multiplicity of infection (MOI) of 3.
(§7) 12 hours prior to virus infection or reactivation, cells were treated with either the small molecule drug or DMSO/PBS control at an equivalent volume. […] For infection cycles lasting longer than 24 hours, small molecule drugs were re-added to the cell culture medium every 24 hours. Upon collection, cells were rinsed with PBS, scraped into a microcentrifuge tube, pelleted by centrifugation, and rinsed again with PBS.

HSV-1 [2] = conditions: in MRC5 cells; cited from earlier work
HCMV [3] = format: cell-based
Protocol: as §1, §2, §3, §4, §5, §6, §7

iSLK.219 cell line = assay: Toxicity to the iSLK.219 cell line; format: cell-based; conditions: 50 μM
HCMV [4] = conditions: cited from earlier work
[5] = 1 μM, by and after 12 HPI, vs DMSO

SMILES: Nc1nc2c(ncn2COCCO)c(=O)[nH]1 [ACV, acyclovir]
- HSV-1 late gene expression (HSV-1 [1]): reduction
- effect on IE HSV-1 protein levels (HSV-1 [1]; 1 μM): little effect
- levels of HSV-1 proteins DBP, UL42, UL30, UL8, UL12 and UL48 (HSV-1 [1]; 1 μM): significant reduction
- decrease in levels of E HSV-1 proteins (HSV-1 [1]; [5]): ~20%
- decrease in levels of L HSV-1 proteins (HSV-1 [1]; [5]): ~35%
- expression of IE and E HSV-1 genes (HSV-1 [1]; 6 HPI): increase
- IC50 (HSV-1 [2]): 2000 to 3000 nM

SMILES: Oc1ccc(/C=C/c2cc(O)cc(O)c2)cc1 [Res]
- DBP (P04296) protein level (HSV-1 [1]; timepoint 2): 0.02121
- TK (P03176) protein level (HSV-1 [1]; timepoint 2): 0.03832
- UL8 (P10192) protein level (HSV-1 [1]; timepoint 2): 0.0171
- UL12 (P04294) protein level (HSV-1 [1]; timepoint 2): 0.01763
- UL30 (P04293) protein level (HSV-1 [1]; timepoint 2): 0.03876
- UL42 (P10226) protein level (HSV-1 [1]; timepoint 2): 0.003041
- US3 (P04413) protein level (HSV-1 [1]; timepoint 2): 0.01605
- ICP0 (P08393) protein level (HSV-1 [1]; timepoint 2): 0.1622
- ICP4 (P08392) protein level (HSV-1 [1]; timepoint 2): 0.1073
- ICP22 (P04485) protein level (HSV-1 [1]; timepoint 2): 0.015
- UL54 (P10238) protein level (HSV-1 [1]; timepoint 2): 0.0667
- CVC2 (P10209) protein level (HSV-1 [1]; timepoint 2): 0.01003
- UL26 (P10210) protein level (HSV-1 [1]; timepoint 2): 0.003453
- UL48 (P06492) protein level (HSV-1 [1]; timepoint 2): 0.007183
- UL49 (P10233) protein level (HSV-1 [1]; timepoint 2): 0.009894
- gB (P10211) protein level (HSV-1 [1]; timepoint 2): 0.0128
- gI (P06487) protein level (HSV-1 [1]; timepoint 2): 0.00718
- DBP (P04296) protein level (HSV-1 [1]; timepoint 6): 0.9121
- TK (P03176) protein level (HSV-1 [1]; timepoint 6): 0.9707
- UL8 (P10192) protein level (HSV-1 [1]; timepoint 6): 1.056
- UL12 (P04294) protein level (HSV-1 [1]; timepoint 6): 0.7418
- UL30 (P04293) protein level (HSV-1 [1]; timepoint 6): 1.353
- UL42 (P10226) protein level (HSV-1 [1]; timepoint 6): 0.2866
- US3 (P04413) protein level (HSV-1 [1]; timepoint 6): 0.616
- ICP0 (P08393) protein level (HSV-1 [1]; timepoint 6): 0.5333
- ICP4 (P08392) protein level (HSV-1 [1]; timepoint 6): 1.063
- ICP22 (P04485) protein level (HSV-1 [1]; timepoint 6): 0.7429
- UL54 (P10238) protein level (HSV-1 [1]; timepoint 6): 0.9415
- CVC2 (P10209) protein level (HSV-1 [1]; timepoint 6): 0.2592
- UL26 (P10210) protein level (HSV-1 [1]; timepoint 6): 0.1986
- UL48 (P06492) protein level (HSV-1 [1]; timepoint 6): 0.1816
- UL49 (P10233) protein level (HSV-1 [1]; timepoint 6): 0.428
- gB (P10211) protein level (HSV-1 [1]; timepoint 6): 0.5098
- gI (P06487) protein level (HSV-1 [1]; timepoint 6): 0.5705
- TK (P03176) protein level (HSV-1 [1]; timepoint 12): 1.24
- UL8 (P10192) protein level (HSV-1 [1]; timepoint 12): 0.9123
- UL12 (P04294) protein level (HSV-1 [1]; timepoint 12): 0.8878
- UL30 (P04293) protein level (HSV-1 [1]; timepoint 12): 1.001
- UL42 (P10226) protein level (HSV-1 [1]; timepoint 12): 0.7743
- US3 (P04413) protein level (HSV-1 [1]; timepoint 12): 1.156
- ICP0 (P08393) protein level (HSV-1 [1]; timepoint 12): 1.108
- ICP4 (P08392) protein level (HSV-1 [1]; timepoint 12): 1.101
- ICP22 (P04485) protein level (HSV-1 [1]; timepoint 12): 1.241
- UL54 (P10238) protein level (HSV-1 [1]; timepoint 12): 1.026
- CVC2 (P10209) protein level (HSV-1 [1]; timepoint 12): 0.7067
- UL26 (P10210) protein level (HSV-1 [1]; timepoint 12): 0.7549
- UL48 (P06492) protein level (HSV-1 [1]; timepoint 12): 0.8411
- UL49 (P10233) protein level (HSV-1 [1]; timepoint 12): 1.283
- gB (P10211) protein level (HSV-1 [1]; timepoint 12): 1.286
- gI (P06487) protein level (HSV-1 [1]; timepoint 12): 0.956
- TK (P03176) protein level (HSV-1 [1]; timepoint 18): 0.9806
- UL8 (P10192) protein level (HSV-1 [1]; timepoint 18): 0.8259
- UL12 (P04294) protein level (HSV-1 [1]; timepoint 18): 0.7425
- UL30 (P04293) protein level (HSV-1 [1]; timepoint 18): 0.7926
- UL42 (P10226) protein level (HSV-1 [1]; timepoint 18): 0.7837
- US3 (P04413) protein level (HSV-1 [1]; timepoint 18): 0.9457
- ICP0 (P08393) protein level (HSV-1 [1]; timepoint 18): 1.159
- ICP4 (P08392) protein level (HSV-1 [1]; timepoint 18): 1.049
- ICP22 (P04485) protein level (HSV-1 [1]; timepoint 18): 1.213
- UL54 (P10238) protein level (HSV-1 [1]; timepoint 18): 0.8148
- CVC2 (P10209) protein level (HSV-1 [1]; timepoint 18): 0.601
- UL26 (P10210) protein level (HSV-1 [1]; timepoint 18): 0.8898
- UL48 (P06492) protein level (HSV-1 [1]; timepoint 18): 0.9275
- gB (P10211) protein level (HSV-1 [1]; timepoint 18): 1.306
- gI (P06487) protein level (HSV-1 [1]; timepoint 18): 1.003

SMILES: Oc1ccc(/C=C/c2cc(O)cc(O)c2)cc1 [trans-Resveratrol]
- levels of HSV-1 viral transactivators ICP4 and UL48 (VP16) (HSV-1 [1]; 10 μM EX-527, 50 μM trans-Resveratrol): downregulated
- decrease in HSV-1 protein levels (HSV-1 [1]; 50 μM): 30-40%
- HCMV UL122 (IE2) and UL123 (IE1) levels (HCMV [3]): decreases
- HCMV UL123 levels (HCMV [3]; 24 HPI, […] CAY10602, 50 μM trans-Resveratrol): unchanged
- HCMV UL26 levels (HCMV [3]; 48 HPI, […] CAY10602, 50 μM trans-Resveratrol): decreased
- HCMV viral protein production (HCMV [3]; by 48 HPI): global reduction
- HCMV UL99 levels (HCMV [3]; by 72 HPI, […] CAY10602, 50 μM trans-Resveratrol): robustly decreased
- global decrease in HCMV viral protein levels (HCMV [3]; by 120 HPI, […] CAY10602, 50 μM trans-Resveratrol): ~70%
- toxicity to the iSLK.219 cell line (iSLK.219 cell line): toxic
- decrease in HCMV titers (HCMV [4]; […] CAY10602, 50 μM trans-Resveratrol): ~50%
- HCMV titers (HCMV [4]): decreased
